Tests used:
[1] = system: Human corneal epithelial cells (HCE cells); assay: MTT assay of viable cells under hyperosmotic conditions (Example 1); assay type: cell-based; details: 150 mM NaCl, 280 mM glucose or 280 mM sorbitol, compared with other NSAIDs
Description: Human corneal epithelial cells (HCE cells) were incubated in hyperosmotic media containing diclofenac. The hyperosmotic conditions of each medium were created by 150 mM NaCl, 280 mM glucose, or 280 mM sorbitol. The number of viable cells was measured by MTT assay, and the absorbance was calculated relative to the control (under isotonic conditions). The values are represented as average±S.D. (n=3), with a single asterisk (*) indicating P<0.05 and a double asterisk (**) indicating P<0.01.
The same procedure as in Example 1 was followed, except that other nonsteroidal anti-inflammatory drugs (NSAIDs) were used in place of diclofenac.

HCE cells [2] = assay: Caspase-3-like activity under hyperosmotic conditions (Example 2); assay type: cell-based, Human; details: 150 mM NaCl, six hours of incubation
Description: (§1) HCE cells were incubated in hyperosmotic media containing diclofenac and 150 mM NaCl. After six hours of incubation, the caspase-3-like activity was measured using a fluorescent peptide substrate. Furthermore, after 12 hours of incubation, cell proliferation was assessed by BrdU incorporation assay, and the absorbance data were expressed as relative values to that of the control (under isotonic conditions). The values are represented as average±S.D. (n=3), with a single asterisk (*) indicating P<0.05 and a double asterisk (**) indicating P<0.01. The same procedure as in Example 2 was followed, except that bromfenac was used in place of diclofenac.

HCE cells [3] = assay: Cell proliferation by BrdU incorporation assay under hyperosmotic conditions (Example 2); assay type: cell-based, Human; details: 150 mM NaCl, 12 hours of incubation
Description: as §1

HCE cells [4] = assay: MTT assay in hyperosmotic media with diclofenac, NaCl and/or PGE2 (Example 3); assay type: cell-based, Human; details: 150 mM NaCl, 24 hours
Description: HCE cells were incubated in hyperosmotic media containing diclofenac, 150 mM NaCl, and/or PGE2 for 24 hours. The number of viable cells was measured by MTT assay, and the absorbance data were expressed as relative values to that of the control (under isotonic conditions).
The same procedure as in Example 3 was followed, except that bromfenac was used in place of diclofenac.

PGE2 = assay: Amount of PGE2 induced by arachidonic acid, measured by EIA (Example 3); assay type: cell-based, Human; details: HCE cells, 30 minutes pre-incubation, 10 μM arachidonic acid
Description: Separately, HCE cells were pre-incubated in media containing diclofenac for 30 minutes, and then incubated in media containing 10 μM arachidonic acid and diclofenac. The arachidonic acid was added to induce PGE2. The amount of PGE2 contained in each culture was measured by EIA. The values are represented as average±S.D. (n=3), with a single asterisk (*) indicating P<0.05 and a double asterisk (**) indicating P<0.01. The same procedure as in Example 3 was followed, except that bromfenac was used in place of diclofenac.

NFAT5 = NFAT5 expression and nuclear translocation by immunoblotting (Example 4); assay type: cell-based, Human; details: HCE cells, 150 mM NaCl, six hours or one hour
Description: HCE cells were incubated in hyperosmotic media containing diclofenac and 150 mM NaCl for six hours (FIG. 4A and FIG. 4C) or for one hour (FIG. 4B). Each whole cell homogenate (FIG. 4A and FIG. 4B) or nuclear extract (FIG. 4B) was analyzed by immunoblotting using an anti-NFAT5, anti-actin, or anti-lamin B antibody. The intensity of the NFAT5 band was measured and expressed as relative values to that of the control (under isotonic conditions without diclofenac) (FIG. 4A and FIG. 4B). The relative bgt1 mRNA expression level was measured by real-time RT-PCR, and the values normalized by the actin expression level are expressed as relative values to that of the control (under isotonic conditions without diclofenac) (FIG. 4C). The values are represented as average±S.D. (n=3), with a single asterisk (*) indicating P<0.05 and a double asterisk (**) indicating P<0.01. The same procedure as in Example 4 was followed, except that bromfenac was used in place of diclofenac.

[5] = system: corneal surface disorders in the dry eye model; assay: Rat dry eye model by lacrimal gland removal (Example 5); assay type: in vivo; details: lacrimal gland removed, ophthalmic solution 5 μl, 0.1% (3.1 mM), three times a day, fluorescein score, TUNEL
Description: The lacrimal gland of a rat was removed to prepare a dry eye model. One to five weeks after the lacrimal gland removal, an ophthalmic solution (5 μl) containing diclofenac (0.1%, 3.1 mM) was administered three times a day. The amount of tears was measured by the cotton thread test. Five weeks after the lacrimal gland removal, ocular tissue sections were prepared and subjected to TUNEL assay and DAPI staining. The values are represented as average±S.E.M., with a single asterisk (*) indicating P<0.01 and n.s. meaning “not significant”. The same procedure as in Example 5 was followed, except that bromfenac was used in place of diclofenac.

[6] = system: corneal surface disorders in the dry eye model; assay: Rat dry eye model, fluorescein score after four weeks of administration (Example 10); assay type: in vivo; details: lacrimal gland removed, ophthalmic solution 5 μl, 0.05% (1.55 mM), three times a day
Description: The lacrimal gland of a rat was removed to prepare a dry eye model. One week after the lacrimal gland removal, an ophthalmic solution (5 μl) containing diclofenac (0.05%, 1.55 mM; or 0.1%, 3.1 mM) was administered three times a day. After four weeks from the start of the administration, the tears were subjected to fluorescein staining, and the fluorescein score was calculated. The same procedure as in Example 10 was followed, except that a buffer was used (Vehicle) in place of diclofenac.

Row | SMILES | reducing cytotoxicity under hyperosmotic conditions (number of viable cells, MTT) [1] | inhibiting apoptosis under hyperosmotic conditions (caspase-3-like activity) (HCE cells [2]) | cell proliferative effect (BrdU incorporation) (HCE cells [3]) | concentration required to reduce cytotoxicity caused by hyperosmolarity (HCE cells [4]; MTT) [nM] | concentration required to reduce PGE2 (PGE2) [nM] | expression and nuclear translocation of NFAT5 (NFAT5) | effect of treating corneal surface disorders in the dry eye model [5] | corneal surface disorders in the dry eye model (fluorescein score) [6] | number of viable cells with PGE2 (MTT) (HCE cells [4]; hyperosmotic media)
1 | O=C(O)Cc1ccccc1Nc1c(Cl)cccc1Cl [diclofenac] | highly effective in reducing cytotoxicity under hyperosmotic conditions | effective in inhibiting apoptosis under hyperosmotic conditions | exhibited a cell proliferative effect | 100 | 0.1 | enhancing the expression and nuclear translocation of NFAT5 | exhibited the effect of treating corneal surface disorders | treatable | 
2 | CCCCC[C@H](O)/C=C/[C@H]1[C@H](O)CC(=O)[C@@H]1C/C=C\CCCC(=O)O [PGE2, prostaglandin E2] |  |  |  |  |  |  |  |  | did not change
